From US12344649B2, “Modulators of parathyroid hormone receptor (PTHR1)” (Flagship Pioneering Innovations VI, LLC, priority 2019, dated 2025)
pEC50: −log10 of the molar value. Several values for one entry are separate records, joined by “and”; a condition that tells them apart may be missing. Identical values can stand only once. Where no end group is shown, it is not given here.

Tests used:
Assay type in all cases: cell-based
[1] = molecular target: T1, PTHR1 (Homo sapiens, UniProt Q03431); assay: β-arrestin1 recruitment BRET assay in transfected HEK293T cells; set-up: Flag (N); Life Technologies Corporation, CA (arrestin cDNA); host or cells: HEK293T (CRL-3216, ATCC); settings: for −log10Slope / EC50: β-arrestin1 recruitment; for −log10Slope: fitted curve slope; for EC50: read-out: −log10EC50 (converted); for β1-arrestin: relative to PTH [1-34], HEK293T cells, BRET
T1 sequence (Q03431 27-593): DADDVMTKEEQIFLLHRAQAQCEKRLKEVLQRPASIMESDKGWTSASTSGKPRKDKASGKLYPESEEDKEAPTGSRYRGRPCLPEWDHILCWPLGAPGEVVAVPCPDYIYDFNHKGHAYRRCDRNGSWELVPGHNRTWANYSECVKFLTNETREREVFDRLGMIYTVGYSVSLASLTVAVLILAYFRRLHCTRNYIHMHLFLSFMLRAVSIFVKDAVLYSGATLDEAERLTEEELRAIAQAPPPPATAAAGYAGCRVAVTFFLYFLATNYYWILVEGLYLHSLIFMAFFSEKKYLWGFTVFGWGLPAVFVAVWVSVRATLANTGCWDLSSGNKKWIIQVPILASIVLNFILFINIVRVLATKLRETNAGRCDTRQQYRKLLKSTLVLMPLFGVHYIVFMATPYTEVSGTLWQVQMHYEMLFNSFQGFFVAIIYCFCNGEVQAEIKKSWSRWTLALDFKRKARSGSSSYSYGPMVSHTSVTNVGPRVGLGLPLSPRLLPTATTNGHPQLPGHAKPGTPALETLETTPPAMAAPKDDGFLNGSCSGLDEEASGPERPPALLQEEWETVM
Experimental: (§1) 18-24 hours post transfection, the Luciferase substrate Coelenterazine (NanoLight Technologies, AZ) was added to cells, a baseline BRET measurement was taken after 5 minutes incubation, and then serial dilutions of peptides, diluted in PBS (with 0.5 mM MgCl2+0.1% BSA FAF), were added to cells, and BRET signal was measured every 2 minutes for 30 minutes on Hybrid Multi-Mode Reader (Synergy Neo2, BioTek, VT). Seventy-five peptides were tested in the β-arrestin recruitment assay.

[2] = molecular target: T1, PTHR1; assay: β-arrestin2 recruitment BRET assay in transfected HEK293T cells; set-up: Flag (N); Life Technologies Corporation, CA (arrestin cDNA); host or cells: HEK293T (CRL-3216, ATCC); settings: for −log10Slope / EC50: β-arrestin2 recruitment; for −log10Slope: fitted curve slope; for EC50: read-out: −log10EC50 (converted); for β-arrestin2 assay activity compared to control peptide: FIG. 2, PTH 1-34 positive control; for β2-arrestin: relative to PTH [1-34], HEK293T cells, BRET
Experimental: as §1

[3] = molecular target: T1, PTHR1; assay: cAMP accumulation assay (HTRF) in CHO-K1/Ga15/PTHR1 cells; set-up: host or cells: CHO-K1 (recombinant line CHO-K1/Ga15/PTHR1); settings: for cAMP accumulation activity compared to control peptide: FIG. 3, PTH 1-34 positive control; for cAMP: relative to PTH [1-34], CHO-K1/Ga15/PTHR1 cells; for EC50: read-out: −log10EC50 (converted); for Emax: CHO-K1, cAMP assay, fitted dose-response maximum
Experimental: Cell suspension (5 μL) was seeded in 384-well plates at a density of 3,000 cells/well. Cells were treated with test samples (5 μL) or agonist (PTH 1-34) for 30 minutes at room temperature. cAMP-d2 working solution (5 μL) and anti-cAMP-Cryptate working solution (5 μL) were added to cells and incubated for 60 minutes at room temperature. The signal of the assay plate was read with PheraStar (BMG LABTECH, NC), an HTRF compatible reader.

[4] = cAMP accumulation, fitted curve slope, replicate plates
[5] = cAMP accumulation, replicate plates
[6] = cAMP assay, fitted dose-response curve
[7] = cAMP assay, fitted dose-response slope
[8] = replicate plates, listed as R1-81

Sequence	−log10Slope ([1]; replicate plates)	pEC50 ([1]; −log10EC50, β-arrestin1 recruitment, replicate plates)	−log10Slope ([2]; replicate plates)	pEC50 ([2]; −log10EC50, β-arrestin2 recruitment, replicate plates)	pEC50 [3]	cAMP accumulation activity compared to control peptide [3]	−log10Slope [3, 4]	cAMP [3]	EC50 ([1]; replicate plates)	EC50 ([2]; replicate plates)	EC50 [3, 5] [nM]	Emax [3] [%]	EC50 [3, 6] [nM]	−log10Slope [3, 7]	β-arrestin1 recruitment compared to PTH 1-34 ([1]; FIG. 1, PTH 1-34 positive control)	β1-arrestin [1]	β-arrestin2 assay activity compared to control peptide [2]	β2-arrestin [2]	−log10Slope [1, 8]	−log10Slope [2, 8]
AVAEIQLMHQRAKWDVLIELAKLLAELLRRYH [Peptide R2-47]	−1.834 and −2.2235 and −1.644	5.84 and 6.19 and 5.44	−2.078 and −1.716 and −1.634	5.86 and 5.77 and 5.46	9.23	increased activity as compared to the control peptide	12	++	–	–	–	–	–	–	–	–	–	–	–	–
AVAEIQLMHQRAKWEIQEIGIKITLDLLQTLK [Peptide R2-41]	−8.214	–	−4.333	–	–	increased activity as compared to the control peptide	−2.911	++	3.83 nM	940 nM	0.0557	–	–	–	–	–	–	–	–	–
AVAEIQLMHQRAKWEIQEIGIKITLELLKEYI [Peptide R2-37]	−1.386 and −0.8678 and −5.353	–	−4.144 and −2.117 and −4.372	–	–	increased activity as compared to the control peptide	−5.899	–	–	386 nM and 1380 nM and 497 nM	0.813	–	–	–	–	–	–	–	–	–
AVAEIQLMHQRAKWELEFELFREFLKLLVDFF [Peptide R1-97]	−0.04462 and −1.336 and −0.04454 and −4.221	–	−4.859 and −4.946 and −1.289 and −4.995	–	–	–	–	–	–	–	–	99.3	58.7	−14.176	–	–	–	–	–	–
AVAEIQLMHQRAKWELEYELFEMFLKLLEEIF [Peptide R1-100]	−6.023 and −5.129 and −4.482	–	−5.84 and −1.653 and −5.805	–	–	–	–	–	607 nM and 605 nM and 569 nM	–	–	99.9	52.8	−12.0796	–	–	–	–	–	–
AVAEIQLMHQRAKWELLEELLKILLELLKEYI [Peptide R2-38]	−5.307	–	−4.789	–	–	–	−7.566	–	0.0179 nM	–	124	–	–	–	higher levels of recruitment of β-arrestin 1	++	–	–	–	–
AVAEIQLMHQRAKWELQEIGIAITLRLLARYI [Peptide R2-43]	−3.786 and −3.741 and −1.605	–	−6.422 and −8.23 and −2.379	–	–	increased activity as compared to the control peptide	7.669	++	–	–	0.0348	–	–	–	–	–	–	–	–	–
AVAEIQLMHQRAKWGLDLELAVKLQEILKDVL [Peptide R2-28]	−1.455	–	−3.381	–	–	–	−5.52	–	–	800 nM	92.4	–	–	–	–	–	–	–	–	–
AVAEIQLMHQRAKWGLDLELRARLREILRDVY [Peptide R2-31]	−2.895 and −4.559	–	−3.98 and −2.409	–	–	–	−0.697	–	9.96 nM and 2.96 nM	6.58 nM and 7.64 nM	–	–	–	–	–	–	activity similar to the control peptide	+	–	–
AVAEIQLMHQRAKWGLEIELLKLLLSLLKEYI [Peptide R2-45]	−4.328 and −4.739 and −2.6191	–	−2.787 and −1.761 and −3.574	–	–	increased activity as compared to the control peptide	4.438	++	483 nM and 470 nM and 542 nM	255 nM and 1750 nM and 337 nM	0.00841	–	–	–	–	–	–	–	–	–
AVAEIQLMHQRAKWGLELELKEKLRKILEDVY [Peptide R2-26]	−2.291 and −7.462	–	−2.019 and −6.257	–	–	–	−14.6415	–	27.1 nM and 12.9 nM	16.1 nM and 12.5 nM	84.5	–	–	–	–	–	–	–	–	–
AVAEIQLMHQRAKWGVELQLKVDLRRILEDVY [Peptide R2-35]	−0.6156 and −2.473 and −2.432	–	−3.628 and −0.891 and −4.077	–	–	activity similar to the control peptide	−9.142	+	–	–	9.84	–	–	–	–	–	–	–	–	–
AVAEIQLMHQRAKWIQDARRRAFLHKLIAEIH [LA-PM-FL, reference compound]	–	–	–	–	–	–	−5.23	–	1.75 nM and 2.65 nM and 3.53 nM	3.64 nM and 3.04 nM and 3.08 nM	13.1	–	–	–	–	+	increased activity as compared to control	++	−3.271 and −2.571 and −2.99	−3.14 and −3.448 and −2.307
AVAEIQLMHQRAKWKILEELLKILIDLLKQYI [Peptide R2-48]	−3.1505 and −0.7628	–	−8.231 and −1.939	–	–	–	–	–	1890 nM	0.0212 nM	–	98.8	64	−14.2687	–	–	increased activity as compared to control	++	–	–
AVAEIQLMHQRAKWKLDLELAVSLRKILEDVY [Peptide R2-27]	−7.323 and −7.877	–	−1.829 and −3.204	–	–	activity similar to the control peptide	−4.343	+	12 nM and 9.45 nM	22.6 nM and 8.32 nM	12.2	–	–	–	–	–	–	–	–	–
AVAEIQLMHQRAKWKLELELKAFLDQILKDVL [Peptide R2-36]	−5.884 and −3.429 and −1.931	–	−4.1664 and −3.85 and −3.8162	–	–	activity similar to the control peptide	−1.696	+	1.47 nM and 4.7 nM and 2.91 nM	2.5 nM and 1.98 nM and 5.39 nM	4.76	–	–	–	–	+	increased activity as compared to control	++	–	–
